According to patent US11149047B2, “Aryl imidazoles for treatment of cancer” (Aptose Biosciences Inc., priority 2017, dated 2021):
Like-named read-outs stand apart in the source and are kept apart here.

How the values were obtained:
[1] = system: BIK, BAD, MCL-1 in Raji cells; test: Western blot of proteins involved in apoptosis; type: cell-based, human; conditions: 0.5 μM, 24 h, n=3
EOL-1 = test: Cytotoxicity study (MTS), 5 days; type: cell-based; conditions: Homo sapiens, EOL1; AML
Method: (§1) EOL-1, GRANTA-519, Jeko-1, Jurkat, Molm-13, NOMO-1, SKM-1, and SU-DHL-6 were obtained from Leibniz-Institut DSMZ. HL-60, KG-1, Mino, MV4-11, Raji, and THP-1 were obtained from ATCC. HEL92.1.7 were obtained from the European Collection of Authenticated Cell Cultures and Ramos cells were a gift from Dr. M. Andreeff (MD Anderson Cancer Center, Houston, Tex.). All cells were cultured in complete media as per the manufacturer's instructions. Early passage cells were collected and frozen within 1 month of receipt from the manufacturer. All experiments were performed on early passage cells within 6 weeks of thawing. MycoScope Mycoplasma Detection Kit (Genlantis catalog #MY01050) was used to screen for potential contamination every 6 months. Peripheral blood mononuclear cells (PBMC) were isolated from fresh healthy donor blood using Ficoll-Paque PLUS (GE Healthcare, catalog #17-1440-02). For synthesis of COMPOUND I free base, 10-phenanthroline-5,6-dione (1.2 equivalents), acetic acid (22 volumes), 2-methyl-5-fluoroindole-3-carboxaldehyde (1.0 equivalents), and ammonium acetate (15 equivalents) were reacted under medium agitation while heated at 95±5° C. for 3 to 7 hours. The reaction was cooled to between 20° C. and 25° C., filtered, rinsed with acetic acid and ethanol, and dried with N2 purge, followed by a wash with 2:1 ethanol:water at 65° C. for 4 hours, cooling to 20° C. to 25° C., filtration, rinsing with 2:1 ethanol:water and EtOAc, and then dried with N2 purge. The purity by HPLC was 99.5%, and the structural identity was confirmed by FT-IR, ^1HNMR, ^13C NMR, and LC/MS. For Fe(COMPOUND I)3 synthesis, five molar equivalents of ferrous ion FeSO4 in water was added to COMPOUND I dissolved in ethanol. The deep red precipitate produced, Fe(COMPOUND I)3, was collected and dissolved in DMSO and characterized by HPLC and mass spectrometry as >95% pure. CX-5461 (7) was purchased from MedChem Express (catalog #HY-13323).
(§2) Cells were plated and treated with vehicle DMSO or COMPOUND I (10 concentrations) in 96-well plates for 5 days at 37° C. and 5% CO2. Cell viability was measured using CellTiter 96 AQueous one solution (MTS) cell proliferation assay (Promega, catalog #G3581), and IC50 values were calculated using GraphPad Prism 7 software.

HEL92.1.7 = test: Cytotoxicity study (MTS), 5 days; type: cell-based; conditions: Homo sapiens, HEL 92.1.7; AML
Method: as §1, §2

Jeko-1 = test: Cytotoxicity study (MTS), 5 days; type: cell-based; conditions: Homo sapiens, MCL
Method: as §1, §2

KG-1 = test: Cytotoxicity study (MTS), 5 days; type: cell-based; conditions: Homo sapiens, AML
Method: as §1, §2

MOLM-13 = test: Cytotoxicity study (MTS), 5 days; type: cell-based; conditions: Homo sapiens, AML
Method: as §1, §2

Mino = test: Cytotoxicity study (MTS), 5 days; type: cell-based; conditions: Homo sapiens, MCL
Method: as §1, §2

Raji = test: Cytotoxicity study (MTS), 5 days; type: cell-based; conditions: Homo sapiens, Burkitt's
Method: as §1, §2

SKM-1 = test: Cytotoxicity study (MTS), 5 days; type: cell-based; conditions: Homo sapiens, AML
Method: as §1, §2

SUDHL-6 = test: Cytotoxicity study (MTS), 5 days; type: cell-based; conditions: Homo sapiens, SU-DHL-6; DLBCL
Method: as §1, §2

MV4-11 = test: Cytotoxicity study (MTS); type: cell-based; conditions: Homo sapiens
Method: as §1
[…] Cell viability was measured using CellTiter 96 AQueous one solution (MTS) cell proliferation assay (Promega, catalog #G3581), and IC50 values were calculated using GraphPad Prism 7 software.

[2] = system: gene expression in MV4-11 cells; test: RNA sequencing differential expression analysis; type: cell-based
Method: Treated MV4-11 cells were subjected to total RNA extraction (as for qRT-PCR analysis) and sequenced at the UCSD genomics core facility. RNA was processed using Illumina TruSeq and single end sequenced for 50-bp reads on the Illumina HiSeq4000. Data were analyzed by the McWeeny lab at Oregon Health and Science University (Portland, Oreg.). FASTQ files were assessed for read base distribution and sequence representation using FASTQC http://www.bioinformatics.babraham.ac.uk/projects/fastqc/. Reads were aligned to HG37 using SubRead v1.5.0-pl keeping uniquely mapped reads. Differential expression genes with less than 50 reads (across all 4 samples) were discarded. Raw data and processed files are available on GEO (https://www.ncbi.nlm.nih.gov/geo/query/acc.cgi?acc=GSE111949) accession number GSE111949.
To gain further insight into the pathways exploited by COMPOUND I to cause cell-cycle arrest and apoptosis, differential expression analysis was performed at both the mRNA and protein levels. MV4-11 cells were treated with either vehicle or 500 nmol/L COMPOUND I for 6 hours, and then gene expression was analyzed by RNA-seq. […] The RNA-seq analysis detected a 2-fold increase in KLF4 and a 4.5-fold increase in CDKN1A expression, which is validated by the qRT-PCR data with MV4-11 cells. The differentially regulated genes were analyzed for enriched pathways or GO (Gene Ontology) terms (FIG. 18A) utilizing the Broad Molecular Signatures database (http://software.broadinstitute.org/gsea/msigdb/index.jsp). As expected, apoptotic and cell-cycle pathways were enriched in the differentially expressed gene set. Unexpectedly, gene expression profiles after COMPOUND I treatment were also enriched in the DNA damage response (DDR) and endoplasmic reticulum (ER) stress/unfolded protein response pathways. […] Gene expression changes detected in MV4-11 cells raised the possibility that COMPOUND I could cause apoptosis by inducing DNA damage and activating cellular stress pathways, and/or by inhibition of expression of the MYC oncogene.

Question: What does the source list for `Cc1[nH]c2ccc(F)cc2c1-c1nc2c3cccnc3c3ncccc3c2[nH]1` [COMPOUND I, 2-(5-fluoro-2-methyl-1H-indol-3-yl)-1H-imidazo[4,5-f][1,10]phenanthroline]?
Answer: BAD increase vs DMSO control [1]: 2.1±0.25 fold; BIK increase vs DMSO control [1]: 47.5±16.8%; MCL-1 decrease vs DMSO control [1]: 38.1±2.3%; IC50 (EOL-1): 0.3 µM; IC50 (HEL92.1.7): 1.75 µM; IC50 (Jeko-1): 0.057 µM; IC50 (KG-1): 0.51 µM; IC50 (MOLM-13): 0.14 µM; IC50 (Mino): 0.23 µM; IC50 (Raji): 0.1 µM; IC50 (SKM-1): 0.48 µM; IC50 (SUDHL-6): 0.51 µM; IC50 (MV4-11; MV4-11, 120 h, AML, 5 days, read-out: IC50 (μM) Mean): 0.24 µM; IC50 (MV4-11; MV4-11, exposure 48 hours, read-out: IC50): 0.47 µM; IC50 (MV4-11; MV4-11, exposure 72 hours, read-out: IC50): 0.4 µM; IC50 (MV4-11; MV4-11, exposure 120 hours, read-out: IC50): 0.24 µM; genes differentially regulated (>2-fold change and P<0.05) ([2]; 500 nmol/L, 6 hours): 1,643 genes; genes downregulated ([2]; 500 nmol/L, 6 hours): 1,227 genes; genes upregulated ([2]; 500 nmol/L, 6 hours): 416 genes; increase in BBC3 ([2]; 500 nmol/L, 6 hours): 3.95 fold; increase in CDKN1A expression ([2]; 500 nmol/L, 6 hours): 4.5 fold; increase in KLF4 expression ([2]; 500 nmol/L, 6 hours): 2 fold; increase in PMAIP1 ([2]; 500 nmol/L, 6 hours): 1.38 fold; KIT expression ([2]; 6-hour treatment): decreased; MYC expression ([2]; 6 hours): downregulated
